The numbers were not newly measured in PMC12304285 (British Journal of Cancer, 2025), which cites them from elsewhere.

This series relates to patients with advanced solid tumours. Details: method as in PMID 33230210. Particulars: single-agent trial; cited from earlier work.

SMILES strings stand for the structures.

As for `COc1ccc([C@@H](O)c2cc(-c3ncnc4cc(N5CCOCC5)ccc34)c(F)cc2Cl)nn1` [peposertib], the “anaemia or myelosuppressive TEAEs” value was “Neither anaemia nor myelosuppressive TEAEs were reported”.
